According to ChEMBL document CHEMBL1151717, “In vivo active aldosterone synthase inhibitors with improved selectivity: lead optimization providing a series of pyridine substituted 3,4-dihydro-1H-quinolin-2-one derivatives” (J Med Chem, 2008):

Experiments:
[1] = Protein binding in rat plasma at 3 uM after 1 hr; format: ADME, cell-free; settings: read-out: PPB (converted)
[2] = AUC (0 to infinity) in Wistar rat at 25 mg/kg, po; format: ADME, organism-based; set-up: time infinity, dose 25 mg/kg, route oral; settings: plasma
CYP19 (aromatase) = target: T1, CYP19 (aromatase) (Homo sapiens, UniProt P11511); assay: Inhibition of human placental CYP19 at 500 nM; format: functional
T1 sequence (P11511 whole entry): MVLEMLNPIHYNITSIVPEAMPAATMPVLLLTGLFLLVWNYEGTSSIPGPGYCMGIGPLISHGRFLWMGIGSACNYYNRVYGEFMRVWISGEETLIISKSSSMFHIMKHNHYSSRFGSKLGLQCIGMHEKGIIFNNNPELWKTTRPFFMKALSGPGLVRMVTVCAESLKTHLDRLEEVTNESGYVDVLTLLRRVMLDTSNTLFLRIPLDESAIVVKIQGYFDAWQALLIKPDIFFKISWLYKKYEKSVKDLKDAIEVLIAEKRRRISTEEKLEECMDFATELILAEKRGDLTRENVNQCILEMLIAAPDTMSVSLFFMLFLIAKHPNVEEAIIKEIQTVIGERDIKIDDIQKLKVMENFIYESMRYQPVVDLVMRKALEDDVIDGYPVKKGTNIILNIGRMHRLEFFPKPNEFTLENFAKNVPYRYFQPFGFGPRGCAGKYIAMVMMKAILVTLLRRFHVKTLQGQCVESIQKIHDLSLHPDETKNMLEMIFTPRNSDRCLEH

[3] = AUC (0 to infinity) in Wistar rat at 5 mg/kg, po by cassette dosing; format: ADME, organism-based; set-up: time infinity, dose 5 mg/kg, route oral; settings: plasma
[4] = Oral bioavailability in Wistar rat at 25 mg/kg; settings: in vivo
Cytochrome P450 2B6 = target: T2, Cytochrome P450 2B6 (Homo sapiens, UniProt P20813); assay: Inhibition of human recombinant CYP2B6 expressed in baculovirus-infected insect microsomes; format: ADME, Microsome
T2 sequence (P20813 whole entry): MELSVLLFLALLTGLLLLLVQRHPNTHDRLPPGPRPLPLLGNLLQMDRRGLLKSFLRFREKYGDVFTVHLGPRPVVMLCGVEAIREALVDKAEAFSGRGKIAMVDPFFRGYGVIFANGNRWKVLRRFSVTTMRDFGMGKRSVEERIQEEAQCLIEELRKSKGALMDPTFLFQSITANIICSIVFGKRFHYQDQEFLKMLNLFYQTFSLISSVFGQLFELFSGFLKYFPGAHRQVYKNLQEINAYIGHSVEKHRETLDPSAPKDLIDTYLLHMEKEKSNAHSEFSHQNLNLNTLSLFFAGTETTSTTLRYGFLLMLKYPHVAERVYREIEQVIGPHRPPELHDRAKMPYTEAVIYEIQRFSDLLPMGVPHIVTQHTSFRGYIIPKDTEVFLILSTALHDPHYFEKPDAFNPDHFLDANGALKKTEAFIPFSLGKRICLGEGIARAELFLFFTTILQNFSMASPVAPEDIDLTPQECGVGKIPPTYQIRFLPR

[5] = Protein binding in human plasma at 3 uM after 1 hr; format: ADME, cell-free; settings: read-out: PPB (converted)
[6] = Tmax in Wistar rat at 25 mg/kg, po; format: ADME, organism-based; set-up: dose 25 mg/kg, route oral; settings: in vivo
[7] = Terminal half life in Wistar rat at 1 mg/kg, iv; format: ADME, organism-based; set-up: dose 1 mg/kg, route intravenous; settings: in vivo, read-out: beta t1/2 (converted)
Cytochrome P450 2D6 = Cytochrome P450 2D6 (Homo sapiens, UniProt P10635); assay: Inhibition of human recombinant CYP2D6 expressed in baculovirus-infected insect microsomes; format: ADME, Microsome; settings: read-out: IC50
CYP1A2 = target: T3, CYP1A2 (Homo sapiens, UniProt P05177); assay: Inhibition of human recombinant CYP1A2 expressed in baculovirus-infected insect microsomes at 2 uM; format: ADME, Microsome
T3 sequence (P05177 whole entry): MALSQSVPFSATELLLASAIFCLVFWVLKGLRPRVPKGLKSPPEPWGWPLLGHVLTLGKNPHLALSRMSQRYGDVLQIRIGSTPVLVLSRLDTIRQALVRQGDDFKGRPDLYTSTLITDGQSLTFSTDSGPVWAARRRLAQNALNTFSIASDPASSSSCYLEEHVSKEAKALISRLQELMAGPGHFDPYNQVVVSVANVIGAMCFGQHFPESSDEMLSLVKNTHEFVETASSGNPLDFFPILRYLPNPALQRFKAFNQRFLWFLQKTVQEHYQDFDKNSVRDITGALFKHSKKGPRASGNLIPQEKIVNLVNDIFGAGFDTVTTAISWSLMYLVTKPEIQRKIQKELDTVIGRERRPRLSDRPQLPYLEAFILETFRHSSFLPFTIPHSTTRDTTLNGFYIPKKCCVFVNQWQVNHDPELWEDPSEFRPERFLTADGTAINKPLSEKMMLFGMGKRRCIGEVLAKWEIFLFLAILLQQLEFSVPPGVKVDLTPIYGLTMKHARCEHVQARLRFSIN

[8] = Cmax in Wistar rat at 25 mg/kg, po; format: ADME, organism-based; set-up: dose 25 mg/kg, route oral; settings: in vivo
Cytochrome P450 1A2 = target: T4, Cytochrome P450 1A2 (Homo sapiens, UniProt P05177)
T4 sequence (P05177 whole entry): T3 sequence (P05177 whole entry)

[9] = Tmax in Wistar rat at 5 mg/kg, po by cassette dosing; format: ADME, organism-based; set-up: dose 5 mg/kg, route oral; settings: in vivo
Cytochrome P450 3A4 = Cytochrome P450 3A4 (Homo sapiens, UniProt P08684); assay: Inhibition of human recombinant CYP3A4 expressed in baculovirus-infected insect microsomes; format: ADME, Microsome
[10] = Terminal half life in Wistar rat at 5 mg/kg, po by cassette dosing; format: ADME, organism-based; set-up: dose 5 mg/kg, route oral; settings: in vivo, read-out: beta t1/2 (converted)
Cytochrome P450 2C9 = Cytochrome P450 2C9 (Homo sapiens, UniProt P11712); assay: Inhibition of human recombinant CYP2C9 expressed in baculovirus-infected insect microsomes; format: ADME, Microsome
[11] = Terminal half life in Wistar rat at 25 mg/kg, po; format: ADME, organism-based; set-up: dose 25 mg/kg, route oral; settings: in vivo, read-out: beta t1/2 (converted)
[12] = Cmax in Wistar rat at 5 mg/kg, po by cassette dosing; format: ADME, organism-based; set-up: dose 5 mg/kg, route oral; settings: in vivo
CYP17 = target: T5, CYP17 (Homo sapiens, UniProt P05093); assay: in vitro; settings: human CYP17 expressed in Escherichia coli
T5 sequence (P05093 whole entry): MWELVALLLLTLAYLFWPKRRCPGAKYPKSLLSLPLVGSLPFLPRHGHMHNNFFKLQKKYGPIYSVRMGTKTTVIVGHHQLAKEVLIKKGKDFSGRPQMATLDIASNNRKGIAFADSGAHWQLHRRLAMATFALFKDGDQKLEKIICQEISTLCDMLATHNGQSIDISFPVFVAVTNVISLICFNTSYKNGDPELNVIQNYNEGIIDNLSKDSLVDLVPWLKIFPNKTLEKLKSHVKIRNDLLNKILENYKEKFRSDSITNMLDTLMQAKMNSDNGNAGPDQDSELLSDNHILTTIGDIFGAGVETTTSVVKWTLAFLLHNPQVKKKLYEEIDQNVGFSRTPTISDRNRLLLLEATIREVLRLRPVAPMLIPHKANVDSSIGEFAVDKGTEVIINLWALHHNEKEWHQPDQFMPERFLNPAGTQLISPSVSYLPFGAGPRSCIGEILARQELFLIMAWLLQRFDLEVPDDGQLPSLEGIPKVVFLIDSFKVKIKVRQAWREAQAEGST
Description: Inhibition of human CYP17 expressed in Escherichia coli at 2.5 uM

[13] = AUC (0 to infinity) in Wistar rat at 1 mg/kg, iv; format: ADME, organism-based; set-up: time infinity, dose 1 mg/kg, route intravenous; settings: plasma

Cytochrome P450 3A4, sequence (P08684 whole entry): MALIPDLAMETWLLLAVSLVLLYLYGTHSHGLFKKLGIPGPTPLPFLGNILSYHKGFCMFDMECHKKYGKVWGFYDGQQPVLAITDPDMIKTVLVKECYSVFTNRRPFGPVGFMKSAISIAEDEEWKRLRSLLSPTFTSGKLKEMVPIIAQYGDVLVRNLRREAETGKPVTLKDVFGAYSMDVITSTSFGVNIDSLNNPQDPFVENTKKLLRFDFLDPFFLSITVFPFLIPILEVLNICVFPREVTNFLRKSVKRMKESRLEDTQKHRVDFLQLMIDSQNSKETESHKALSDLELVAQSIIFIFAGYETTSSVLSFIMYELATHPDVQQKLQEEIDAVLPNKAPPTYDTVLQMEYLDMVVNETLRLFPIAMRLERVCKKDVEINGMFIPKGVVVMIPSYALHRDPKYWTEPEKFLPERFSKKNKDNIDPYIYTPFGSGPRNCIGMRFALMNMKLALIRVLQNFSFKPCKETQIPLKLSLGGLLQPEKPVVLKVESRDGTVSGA
Cytochrome P450 2D6, sequence (P10635 whole entry): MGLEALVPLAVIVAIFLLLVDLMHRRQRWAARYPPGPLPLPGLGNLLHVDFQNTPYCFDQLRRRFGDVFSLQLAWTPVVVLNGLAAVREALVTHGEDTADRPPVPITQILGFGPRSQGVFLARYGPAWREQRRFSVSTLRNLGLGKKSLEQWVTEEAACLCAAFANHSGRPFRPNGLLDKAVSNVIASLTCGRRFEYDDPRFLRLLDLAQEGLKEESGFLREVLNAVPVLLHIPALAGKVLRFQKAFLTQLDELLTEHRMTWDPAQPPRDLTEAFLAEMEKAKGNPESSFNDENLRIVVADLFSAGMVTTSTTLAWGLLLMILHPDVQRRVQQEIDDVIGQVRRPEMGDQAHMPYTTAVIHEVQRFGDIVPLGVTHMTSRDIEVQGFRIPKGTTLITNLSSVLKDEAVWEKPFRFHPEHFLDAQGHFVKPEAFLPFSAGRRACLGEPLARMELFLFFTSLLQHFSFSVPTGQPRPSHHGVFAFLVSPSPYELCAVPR
Cytochrome P450 2C9, sequence (P11712 whole entry): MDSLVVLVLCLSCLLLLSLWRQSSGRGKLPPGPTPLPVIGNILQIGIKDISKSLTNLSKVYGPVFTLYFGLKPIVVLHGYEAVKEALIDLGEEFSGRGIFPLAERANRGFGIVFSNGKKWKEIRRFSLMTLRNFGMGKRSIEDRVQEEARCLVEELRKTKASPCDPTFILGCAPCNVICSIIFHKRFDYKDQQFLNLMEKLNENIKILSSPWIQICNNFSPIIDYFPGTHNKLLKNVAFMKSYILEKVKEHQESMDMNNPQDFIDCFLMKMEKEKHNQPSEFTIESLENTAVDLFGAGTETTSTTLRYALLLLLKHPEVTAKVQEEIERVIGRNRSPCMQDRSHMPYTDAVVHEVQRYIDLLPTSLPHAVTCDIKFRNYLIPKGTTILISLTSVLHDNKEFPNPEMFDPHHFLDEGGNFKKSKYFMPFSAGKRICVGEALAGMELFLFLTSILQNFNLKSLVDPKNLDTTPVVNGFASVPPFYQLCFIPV

fraction unbound at 1 h, 3 µM [1]: 0.4
AUC(0-inf) [2]: 4760 ng·h/mL
inhibition at 0.5 µM (CYP19 (aromatase)): 21%
AUC(0-inf) [3]: 1750 ng·h/mL
bioavailability [4]: 71%
IC50 (Cytochrome P450 2B6): < 50 µM
fraction unbound at 1 h, 3 µM [5]: 0.39
Tmax [6]: 1 h
half-life [7]: 102 min
IC50 (Cytochrome P450 2D6): 171 µM
inhibition at 2 µM (CYP1A2): 50%
Cmax [8]: 1540 ng/mL
IC50 (Cytochrome P450 1A2): 1950 nM
Tmax [9]: 4 h
IC50 (Cytochrome P450 3A4): 127 µM
half-life [10]: 228 min
IC50 (Cytochrome P450 2C9): 58.9 µM
half-life [11]: 72 min
Cmax [12]: 261 ng/mL
inhibition at 2.5 µM (CYP17): 41%
AUC(0-inf) [13]: 270 ng·h/mL
Compound: O=C1CCc2cc(-c3cccnc3)ccc2N1
